Where a SMILES comes first, the peptide text is derived from it. Bridges are numbered along the chain shown (N, C = ends). [ ]: non-standard residue; d: D form. Nle = CCCC[C@H](N)C(=O)O; Orn = NCCC[C@H](N)C(=O)O
Columns and labels:
[1] = target: T1, human Kv1.3 voltage-gated K+ channel (Homo sapiens, UniProt P22001); assay: Kv1.3 blocker activity in FLIPR thallium assay; type: cell-based
T1 construct: host or cells: CHO-DUKX
Procedure: A human Kv1.3 voltage-gated K+ channel cell line was purchased from Perkin Elmer (#TDS-AX-010-C-1). The cell line is based on CHO-DUKX cells stably transfected with the human Kv1.3 voltage-gated K+ channel.
The cell line was grown in MEMα with nucleotides, GlutaMAX (Gibco #32571028), 10% Foetal Bovine Serum (FBS), 0.4 mg/ml Geneticin, 100 units/ml Penicillin, and 100 μg/ml Streptomycin and seeded at 10.000 cells/well in black poly-D-lysine-coated 96 well plates.
The FluxOR™ Potassium Ion Channel Assay (Invitrogen #F10016) was used to quantitate flux of thallium ions into the cells as a response to Kv1.3 activation with a stimulus buffer causes depolarization of the cell membrane, thereby generating a fluorescent signal, proportional to channel activity. The assay was performed as described by the assay kit manufacturer including a compound pre-incubation step (30 min, 37° C., 5% CO2) in assay buffer containing 0.02% W/v casein from bovine milk (Sigma #C4765) prior to cell membrane depolarization using a final stimuli buffer composition corresponding to 0.2× FluxOR™ chloride-free buffer, 5 mM K2SO4, 1 mM Tl2SO4. The fluorescence responses were recorded and quantified (maximum response at 50 s, 37° C.) using the FLIPR® Tetra High Throughput Screening System (Molecular Devices, Inc.).
IC50 can be regarded as a measure of potency of inhibition for the respective compound. The IC50 value is a measure of the concentration of an inhibitor required to achieve half of that compound's maximal inhibition of ion channel activity in a given assay.

[2] = target: T2, human Kv1.2 (Homo sapiens, UniProt P16389); assay: cell-based; details: ratio of patch clamp IC50 values
T2 construct: expressed in transfected cells; host or cells: CHO

[3] = target: T3, human Kv1.6 (Homo sapiens, UniProt P17658); assay: cell-based; details: ratio of patch clamp IC50 values
T3 construct: expressed in transfected cells; host or cells: CHO

[4] = target: Rat whole blood (Rattus norvegicus, UniProt P15384); type: cell-based; details: IL-17A release, thapsigargin, 24 Hr, at least 2 replicates
[5] = target: T4, human Kv1.1 (Homo sapiens, UniProt Q09470); assay: cell-based; details: ratio of patch clamp IC50 values
T4 construct: expressed in transfected cells; host or cells: CHO
T4 sequence (Q09470 whole entry): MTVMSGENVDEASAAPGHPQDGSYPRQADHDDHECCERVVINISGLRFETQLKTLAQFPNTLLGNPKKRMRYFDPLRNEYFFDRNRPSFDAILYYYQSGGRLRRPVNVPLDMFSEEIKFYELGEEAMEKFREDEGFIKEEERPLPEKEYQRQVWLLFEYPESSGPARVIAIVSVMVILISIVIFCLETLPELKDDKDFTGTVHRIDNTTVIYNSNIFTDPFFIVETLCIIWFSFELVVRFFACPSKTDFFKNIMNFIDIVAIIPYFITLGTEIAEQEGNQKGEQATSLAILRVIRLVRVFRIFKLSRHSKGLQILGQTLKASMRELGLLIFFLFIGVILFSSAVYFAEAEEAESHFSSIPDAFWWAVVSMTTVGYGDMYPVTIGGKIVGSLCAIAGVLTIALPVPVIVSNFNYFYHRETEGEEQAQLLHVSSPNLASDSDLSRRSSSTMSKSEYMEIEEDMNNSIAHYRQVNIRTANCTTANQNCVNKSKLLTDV

T2 sequence (P16389 whole entry): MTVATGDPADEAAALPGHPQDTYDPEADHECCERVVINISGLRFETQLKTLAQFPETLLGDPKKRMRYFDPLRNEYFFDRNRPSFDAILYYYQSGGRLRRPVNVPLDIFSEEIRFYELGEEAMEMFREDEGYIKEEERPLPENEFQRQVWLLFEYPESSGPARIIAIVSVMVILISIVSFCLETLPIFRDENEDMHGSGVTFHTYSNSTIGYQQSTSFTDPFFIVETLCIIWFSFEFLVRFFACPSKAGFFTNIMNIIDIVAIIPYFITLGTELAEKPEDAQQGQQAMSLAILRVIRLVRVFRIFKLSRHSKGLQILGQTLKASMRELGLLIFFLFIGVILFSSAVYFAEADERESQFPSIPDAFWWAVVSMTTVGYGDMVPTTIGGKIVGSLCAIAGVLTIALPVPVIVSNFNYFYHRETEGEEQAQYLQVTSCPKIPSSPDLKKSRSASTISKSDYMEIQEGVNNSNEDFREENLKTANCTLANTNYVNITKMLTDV
T3 sequence (P17658 whole entry): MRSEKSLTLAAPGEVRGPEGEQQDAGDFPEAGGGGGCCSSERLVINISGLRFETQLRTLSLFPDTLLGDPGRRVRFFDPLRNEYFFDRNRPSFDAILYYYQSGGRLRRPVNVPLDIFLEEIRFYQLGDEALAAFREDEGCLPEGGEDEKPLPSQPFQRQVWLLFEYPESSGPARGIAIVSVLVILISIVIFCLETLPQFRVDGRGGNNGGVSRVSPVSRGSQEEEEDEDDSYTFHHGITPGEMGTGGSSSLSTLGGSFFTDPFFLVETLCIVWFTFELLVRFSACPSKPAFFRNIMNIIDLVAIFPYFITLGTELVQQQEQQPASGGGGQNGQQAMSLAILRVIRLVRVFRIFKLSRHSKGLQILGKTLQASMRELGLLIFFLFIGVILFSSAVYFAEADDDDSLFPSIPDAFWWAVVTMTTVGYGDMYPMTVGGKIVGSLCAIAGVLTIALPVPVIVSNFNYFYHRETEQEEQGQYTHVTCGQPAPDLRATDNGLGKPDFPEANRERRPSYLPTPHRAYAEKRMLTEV
T1 sequence (P22001 whole entry): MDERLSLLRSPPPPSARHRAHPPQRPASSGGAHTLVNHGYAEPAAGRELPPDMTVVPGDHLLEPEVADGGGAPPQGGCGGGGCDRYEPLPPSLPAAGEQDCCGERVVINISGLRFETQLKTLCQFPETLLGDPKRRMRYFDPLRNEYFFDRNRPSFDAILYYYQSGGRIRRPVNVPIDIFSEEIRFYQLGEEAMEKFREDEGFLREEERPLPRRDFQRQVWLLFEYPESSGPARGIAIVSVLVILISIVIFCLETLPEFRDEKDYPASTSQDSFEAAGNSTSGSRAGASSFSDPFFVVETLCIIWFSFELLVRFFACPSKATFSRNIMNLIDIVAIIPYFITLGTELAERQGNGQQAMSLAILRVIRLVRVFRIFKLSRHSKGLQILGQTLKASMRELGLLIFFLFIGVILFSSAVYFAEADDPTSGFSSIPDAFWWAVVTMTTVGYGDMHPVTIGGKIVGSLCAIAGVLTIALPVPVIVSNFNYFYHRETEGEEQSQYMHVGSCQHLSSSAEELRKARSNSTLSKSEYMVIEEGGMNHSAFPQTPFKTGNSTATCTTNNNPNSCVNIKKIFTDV
Chain of Rat whole blood (P15384 whole entry): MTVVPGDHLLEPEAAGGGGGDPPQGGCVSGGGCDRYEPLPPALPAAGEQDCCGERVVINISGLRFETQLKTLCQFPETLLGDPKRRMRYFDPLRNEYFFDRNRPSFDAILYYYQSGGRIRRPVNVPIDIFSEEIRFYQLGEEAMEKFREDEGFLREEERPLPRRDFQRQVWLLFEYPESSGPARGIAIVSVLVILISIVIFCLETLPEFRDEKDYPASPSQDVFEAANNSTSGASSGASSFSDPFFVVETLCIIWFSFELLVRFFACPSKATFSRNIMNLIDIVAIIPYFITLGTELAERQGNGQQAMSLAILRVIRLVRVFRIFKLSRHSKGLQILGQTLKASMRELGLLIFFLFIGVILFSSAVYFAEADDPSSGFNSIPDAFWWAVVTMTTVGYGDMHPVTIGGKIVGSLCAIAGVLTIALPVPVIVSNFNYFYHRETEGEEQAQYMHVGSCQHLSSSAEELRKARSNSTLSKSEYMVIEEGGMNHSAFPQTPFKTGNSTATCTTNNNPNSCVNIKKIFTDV

Row | Structure (SMILES) | IC50 [1] | Selectivity ratio Kv1.2/Kv1.3 [2] | Selectivity ratio Kv1.6/Kv1.3 [3] | IC50 [4] | Selectivity ratio Kv1.1/Kv1.3 [5]
1 | CCCC[C@H](NC(=O)[C@@H]1CCCN1)C(=O)N[C@@H](CCC(=O)O)C(=O)N[C@@H](CCCC)C(=O)N[C@@H](CCCNC(=N)N)C(=O)N[C@H]1CSSC[C@@H]2NC(=O)[C@H](CCCCN)NC(=O)CNC(=O)[C@H](Cc3ccccc3)NC(=O)[C@H]([C@@H](C)CC)NC(=O)[C@H](CO)NC(=O)CNC(=O)[C@H]([C@@H](C)CC)NC(=O)[C@H](C)NC(=O)[C@H](C)NC(=O)[C@H](CC(C)C)NC(=O)[C@@H]3CSSC[C@@H](C(=O)N[C@@H](Cc4ccc(O)cc4)C(=O)N4CCC[C@H]4C(=O)N[C@@H](CCCNC(=N)N)C(=O)O)NC(=O)[C@H](CCCCN)NC(=O)[C@H](CSSC[C@H](NC(=O)[C@H](CCC(=O)O)NC(=O)[C@H](C(C)C)NC(=O)[C@H](CO)NC(=O)[C@H](C)NC(=O)[C@H](CCCN)NC1=O)C(=O)N[C@@H](CCCCN)C(=O)N[C@@H](CCC(N)=O)C(=O)N[C@@H](CCCCN)C(=O)N3)NC(=O)[C@H](CCCCN)NC(=O)[C@H](CCCCN)NC(=O)[C@H](CC(N)=O)NC(=O)[C@H](CCCC)NC2=O [compound 2] (H-P[Nle]E[Nle]RC[Orn]ASVECKQKCLAAIGSIFGKC[Nle]NKKCKCYPR-OH; disulfide 6-27, 12-32, 16-34) | 0.12 nM | – | – | – | –
2 | CCCC[C@H](NC(=O)[C@@H]1CCCN1)C(=O)N[C@@H](CCC(=O)O)C(=O)N[C@@H](CCCC)C(=O)N[C@@H](CCCNC(=N)N)C(=O)N[C@H]1CSSC[C@@H]2NC(=O)[C@H](CCCCN)NC(=O)CNC(=O)[C@H](Cc3ccccc3)NC(=O)[C@H]([C@@H](C)CC)NC(=O)[C@H](CO)NC(=O)CNC(=O)[C@H]([C@@H](C)CC)NC(=O)[C@H](C)NC(=O)[C@H](C)NC(=O)[C@H](CC(C)C)NC(=O)[C@@H]3CSSC[C@@H](C(=O)N[C@@H](Cc4ccc(O)cc4)C(=O)N4CCC[C@H]4C(=O)N[C@@H](CCCNC(=N)N)C(=O)O)NC(=O)[C@H](CCCCN)NC(=O)[C@H](CSSC[C@H](NC(=O)[C@H](CCC(=O)O)NC(=O)[C@H](C(C)C)NC(=O)[C@H](CO)NC(=O)[C@H](C)NC(=O)[C@H](Cc4ccc(O)cc4)NC1=O)C(=O)N[C@@H](CCCCN)C(=O)N[C@@H](CCC(N)=O)C(=O)N[C@@H](CCCCN)C(=O)N3)NC(=O)[C@H](CCCCN)NC(=O)[C@H](CCCCN)NC(=O)[C@H](CC(N)=O)NC(=O)[C@H](CCCC)NC2=O [compound 5] (H-P[Nle]E[Nle]RCYASVECKQKCLAAIGSIFGKC[Nle]NKKCKCYPR-OH; disulfide 6-27, 12-32, 16-34) | 0.18 nM | – | – | – | –
3 | CCCC[C@H](NC(=O)[C@@H]1CCCN1)C(=O)N[C@@H](CCC(=O)O)C(=O)N[C@@H](CCCC)C(=O)N[C@@H](CCCNC(=N)N)C(=O)N[C@H]1CSSC[C@@H]2NC(=O)[C@H](CCCCN)NC(=O)CNC(=O)[C@H](Cc3ccccc3)NC(=O)[C@H]([C@@H](C)CC)NC(=O)[C@H](CO)NC(=O)CNC(=O)[C@H]([C@@H](C)CC)NC(=O)[C@H](C)NC(=O)[C@H](C)NC(=O)[C@H](CC(C)C)NC(=O)[C@@H]3CSSC[C@@H](C(=O)N[C@@H](Cc4ccc(O)cc4)C(=O)N4CCC[C@H]4C(=O)N[C@@H](CCCNC(=N)N)C(=O)O)NC(=O)[C@H](CCCCN)NC(=O)[C@H](CSSC[C@H](NC(=O)[C@H](CCC(=O)O)NC(=O)[C@H](C(C)C)NC(=O)[C@H](CCCN)NC(=O)[C@H](C)NC(=O)[C@H](CO)NC1=O)C(=O)N[C@@H](CCCCN)C(=O)N[C@@H](CCC(N)=O)C(=O)N[C@@H](CCCCN)C(=O)N3)NC(=O)[C@H](CCCCN)NC(=O)[C@H](CCCCN)NC(=O)[C@H](CC(N)=O)NC(=O)[C@H](CCCC)NC2=O [compound 6] (H-P[Nle]E[Nle]RCSA[Orn]VECKQKCLAAIGSIFGKC[Nle]NKKCKCYPR-OH; disulfide 6-27, 12-32, 16-34) | 33 nM | – | – | – | –
4 | CCCC[C@@H]1NC(=O)[C@@H]2CSSC[C@H](NC(=O)[C@@H](N)CCCNC(=N)N)C(=O)N[C@@H](CO)C(=O)N[C@@H](C)C(=O)N[C@@H](CO)C(=O)N[C@@H](C(C)C)C(=O)N[C@@H](CCC(=O)O)C(=O)N[C@H]3CSSC[C@H](NC(=O)[C@H](CCCCN)NC(=O)[C@H](CCCCN)NC(=O)[C@H](CC(N)=O)NC1=O)C(=O)N[C@@H](CCCCN)C(=O)N[C@H](C(=O)N[C@@H](Cc1ccc(O)cc1)C(=O)N1CCC[C@H]1C(=O)N[C@@H](CCCNC(=N)N)C(N)=O)CSSC[C@H](NC(=O)[C@H](CCCCN)NC(=O)[C@H](CCC(N)=O)NC(=O)[C@H](CCCCN)NC3=O)C(=O)N[C@@H](CC(C)C)C(=O)N[C@@H](CCCCN)C(=O)N[C@@H](C)C(=O)N[C@@H]([C@@H](C)CC)C(=O)NCC(=O)N[C@@H](CO)C(=O)N[C@@H]([C@@H](C)CC)C(=O)N[C@@H](Cc1ccccc1)C(=O)NCC(=O)N[C@@H](CCCCN)C(=O)N2 [compound 100] (H-RCSASVECKQKCLKAIGSIFGKC[Nle]NKKCKCYPR-NH2; disulfide 2-23, 8-28, 12-30) | – | 708 | 3290 | 0.52 nM | >7600
5 | CCCC[C@@H]1NC(=O)[C@@H]2CSSC[C@H](NC(=O)[C@H](CCCCN)NC(=O)[C@H](CO)NC(C)=O)C(=O)N[C@@H](CO)C(=O)N[C@@H](C)C(=O)N[C@@H](CO)C(=O)N[C@@H](C(C)C)C(=O)N[C@@H](CCC(=O)O)C(=O)N[C@H]3CSSC[C@H](NC(=O)[C@H](CCCCN)NC(=O)[C@H](CCCCN)NC(=O)[C@H](CC(N)=O)NC1=O)C(=O)N[C@@H](CCCCN)C(=O)N[C@H](C(=O)N[C@@H](Cc1ccc(O)cc1)C(=O)N1CCC[C@H]1C(=O)N[C@@H](CCCNC(=N)N)C(N)=O)CSSC[C@H](NC(=O)[C@H](CCCCN)NC(=O)[C@H](CCC(N)=O)NC(=O)[C@H](CCCCN)NC3=O)C(=O)N[C@@H](CC(C)C)C(=O)N[C@@H](CCCCN)C(=O)N[C@@H](C)C(=O)N[C@@H]([C@@H](C)CC)C(=O)NCC(=O)N[C@@H](CO)C(=O)N[C@@H]([C@@H](C)CC)C(=O)N[C@@H](Cc1ccccc1)C(=O)NCC(=O)N[C@@H](CCCCN)C(=O)N2 [compound 101] (Ac-SKCSASVECKQKCLKAIGSIFGKC[Nle]NKKCKCYPR-NH2; disulfide 3-24, 9-29, 13-31) | – | 196 | 1451 | 0.36 nM | >3000
6 | CCCC[C@@H]1NC(=O)[C@@H]2CSSC[C@H](NC(=O)[C@H](CCCNC(=N)N)NC(=O)[C@H](CC(C)C)NC(C)=O)C(=O)N[C@@H](CO)C(=O)N[C@@H](C)C(=O)N[C@@H](CO)C(=O)N[C@@H](C(C)C)C(=O)N[C@@H](CCC(=O)O)C(=O)N[C@H]3CSSC[C@H](NC(=O)[C@H](CCCCN)NC(=O)[C@H](CCCCN)NC(=O)[C@H](CC(N)=O)NC1=O)C(=O)N[C@@H](CCCCN)C(=O)N[C@H](C(=O)N[C@@H](Cc1ccc(O)cc1)C(=O)N1CCC[C@H]1C(=O)N[C@@H](CCCNC(=N)N)C(N)=O)CSSC[C@H](NC(=O)[C@H](CCCCN)NC(=O)[C@H](CCC(N)=O)NC(=O)[C@H](CCCCN)NC3=O)C(=O)N[C@@H](CC(C)C)C(=O)N[C@@H](CCCCN)C(=O)N[C@@H](C)C(=O)N[C@@H]([C@@H](C)CC)C(=O)NCC(=O)N[C@@H](CO)C(=O)N[C@@H]([C@@H](C)CC)C(=O)N[C@@H](Cc1ccccc1)C(=O)NCC(=O)N[C@@H](CCCCN)C(=O)N2 [compound 102] (Ac-LRCSASVECKQKCLKAIGSIFGKC[Nle]NKKCKCYPR-NH2; disulfide 3-24, 9-29, 13-31) | – | 352 | 7096 | 0.37 nM | >8700
7 | CC[C@H](C)[C@@H]1NC(=O)[C@H](C)NC(=O)[C@H](CCCCN)NC(=O)[C@H](CC(C)C)NC(=O)[C@@H]2CSSC[C@@H](C(=O)N[C@@H](Cc3ccc(O)cc3)C(=O)N3CCC[C@H]3C(=O)N[C@@H](CCCNC(=N)N)C(=O)O)NC(=O)[C@H](CCCCN)NC(=O)[C@@H]3CSSC[C@H](NC(=O)[C@H](CCC(=O)O)NC(=O)[C@H](C(C)C)NC(=O)[C@H](CO)NC(=O)[C@H](C)NC(=O)[C@H](CO)NC(=O)[C@@H](N)CSSC[C@H](NC(=O)[C@H](CCCCN)NC(=O)CNC(=O)[C@H](Cc4ccccc4)NC(=O)[C@H]([C@@H](C)CC)NC(=O)[C@H](CO)NC(=O)CNC1=O)C(=O)N[C@@H](CCSC)C(=O)N[C@@H](CC(N)=O)C(=O)N[C@@H](CCCCN)C(=O)N[C@@H](CCCCN)C(=O)N3)C(=O)N[C@@H](CCCCN)C(=O)N[C@@H](CCC(N)=O)C(=O)N[C@@H](CCCCN)C(=O)N2 [compound 106] (H-CSASVECKQKCLKAIGSIFGKCMNKKCKCYPR-OH; disulfide 1-22, 7-27, 11-29) | – | 878 | >1400 | 1.9 nM | >1400
